Test results taken from patent publication US20230085307A1, “PYRIDAZINONE COMPOUND AND HERBICIDE” (NISSAN CHEMICAL CORPORATION, priority 2019, published 2023).

Columns and labels:
persian speedwell [1] = experiment: Test Example 5: herbicidal effect by foliage application, plastic box (Table 20, symbol R); assay type: in vivo, Persian speedwell (Veronica persica); conditions: 320 g/ha, foliage application after 14-day growth, evaluated three weeks after application
Outline: (§1)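 Foliar spray test: emulsion formulation diluted in water to a set application rate, sprayed onto 14-day-old plants raised in diluvial soil at 25° C to 30° C under glass. Both herbicidal effect and crop effect rated visually three weeks later.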

velvetleaf [2] = experiment: Test Example 4: herbicidal effect by soil treatment (Table 19, symbol M); assay type: in vivo, velvetleaf (Abutilon theophrasti); conditions: amount of applied herbicide 320 g/ha
Outline: (§2)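 Step 1: sow seeds in sterilized diluvial soil, cover ~1.5 cm. Step 2: spray diluted emulsion onto soil surface at predetermined rate. Step 3: greenhouse, 25–30° C, three weeks. Step 4: grade effect on each plant by earlier criteria.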

windgrass = experiment: Test Example 4: herbicidal effect by soil treatment (Table 19, symbol L); assay type: in vivo, windgrass (Apera spica-venti); conditions: amount of applied herbicide 320 g/ha
Outline: as §2

southern crabgrass [3] = experiment: Test Example 4: herbicidal effect by soil treatment (Table 19, symbol F); assay type: in vivo, southern crabgrass (Digitaria ciliaris); conditions: amount of applied herbicide 320 g/ha
Outline: as §2

lambsquarters [4] = experiment: Test Example 4: herbicidal effect by soil treatment (Table 19, symbol O); assay type: in vivo, lambsquarters (Chenopodium album); conditions: amount of applied herbicide 320 g/ha
Outline: as §2

barnyard grass [5] = experiment: Test Example 3: herbicidal effect by foliage application, Wagner pot (Table 18, symbol H); assay type: in vivo, barnyard grass (Echinochloa crus-galli); conditions: 320 g/ha
Outline: (§3)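 Plants were sown in alluvial soil held under 0.1–0.5 cm standing water and grown 14 days in a greenhouse at 25–30 °C. An emulsifiable formulation, water-diluted to the set dose, was then sprayed onto the foliage, and effects were scored three weeks later using previously defined criteria.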

blackgrass [6] = experiment: Test Example 5: herbicidal effect by foliage application, plastic box (Table 20, symbol J); assay type: in vivo, blackgrass (Alopecurus myosuroides); conditions: 320 g/ha, foliage application after 14-day growth, evaluated three weeks after application
Outline: as §1

redroot pigweed [7] = experiment: Test Example 4: herbicidal effect by soil treatment (Table 19, symbol N); assay type: in vivo, redroot pigweed (Amaranthus retroflexus); conditions: amount of applied herbicide 320 g/ha
Outline: as §2

barnyard grass [8] = experiment: Test Example 5: herbicidal effect by foliage application, plastic box (Table 20, symbol H); assay type: in vivo, barnyard grass (Echinochloa crus-galli); conditions: 320 g/ha, foliage application after 14-day growth, evaluated three weeks after application
Outline: as §1

Chinese sprangletop = experiment: Test Example 3: herbicidal effect by foliage application, Wagner pot (Table 18, symbol D); assay type: in vivo, chinese sprangletop (Leptochloa chinensis); conditions: 320 g/ha
Outline: as §3

chickweed [9] = experiment: Test Example 4: herbicidal effect by soil treatment (Table 19, symbol P); assay type: in vivo, common chickweed (Stellaria media); conditions: amount of applied herbicide 320 g/ha
Outline: as §2

wild oat [10] = experiment: Test Example 5: herbicidal effect by foliage application, plastic box (Table 20, symbol I); assay type: in vivo, wild oat (Avena fatua); conditions: 320 g/ha, foliage application after 14-day growth, evaluated three weeks after application
Outline: as §1

velvetleaf [11] = experiment: Test Example 5: herbicidal effect by foliage application, plastic box (Table 20, symbol M); assay type: in vivo, velvetleaf (Abutilon theophrasti); conditions: 320 g/ha, foliage application after 14-day growth, evaluated three weeks after application
Outline: as §1

green foxtail [12] = experiment: Test Example 5: herbicidal effect by foliage application, plastic box (Table 20, symbol G); assay type: in vivo, green foxtail (Setaria viridis); conditions: 320 g/ha, foliage application after 14-day growth, evaluated three weeks after application
Outline: as §1

rice flat sedge = experiment: Test Example 3: herbicidal effect by foliage application, Wagner pot (Table 18, symbol E); assay type: in vivo, rice flat sedge (Cyperus iria); conditions: 320 g/ha
Outline: as §3

southern crabgrass [13] = experiment: Test Example 5: herbicidal effect by foliage application, plastic box (Table 20, symbol F); assay type: in vivo, southern crabgrass (Digitaria ciliaris); conditions: 320 g/ha, foliage application after 14-day growth, evaluated three weeks after application
Outline: as §1

persian speedwell [14] = experiment: Test Example 4: herbicidal effect by soil treatment (Table 19, symbol R); assay type: in vivo, Persian speedwell (Veronica persica); conditions: amount of applied herbicide 320 g/ha
Outline: as §2

lambsquarters [15] = experiment: Test Example 5: herbicidal effect by foliage application, plastic box (Table 20, symbol O); assay type: in vivo, lambsquarters (Chenopodium album); conditions: 320 g/ha, foliage application after 14-day growth, evaluated three weeks after application
Outline: as §1

wild oat [16] = experiment: Test Example 4: herbicidal effect by soil treatment (Table 19, symbol I); assay type: in vivo, wild oat (Avena fatua); conditions: amount of applied herbicide 320 g/ha
Outline: as §2

Italian ryegrass [17] = experiment: Test Example 5: herbicidal effect by foliage application, plastic box (Table 20, symbol K); assay type: in vivo, Italian ryegrass (Lolium multiflorum); conditions: 320 g/ha, foliage application after 14-day growth, evaluated three weeks after application
Outline: as §1

redroot pigweed [18] = experiment: Test Example 5: herbicidal effect by foliage application, plastic box (Table 20, symbol N); assay type: in vivo, redroot pigweed (Amaranthus retroflexus); conditions: 320 g/ha, foliage application after 14-day growth, evaluated three weeks after application
Outline: as §1

Italian ryegrass [19] = experiment: Test Example 4: herbicidal effect by soil treatment (Table 19, symbol K); assay type: in vivo, Italian ryegrass (Lolium multiflorum); conditions: amount of applied herbicide 320 g/ha
Outline: as §2

green foxtail [20] = experiment: Test Example 4: herbicidal effect by soil treatment (Table 19, symbol G); assay type: in vivo, green foxtail (Setaria viridis); conditions: amount of applied herbicide 320 g/ha
Outline: as §2

chickweed [21] = experiment: Test Example 5: herbicidal effect by foliage application, plastic box (Table 20, symbol P); assay type: in vivo, common chickweed (Stellaria media); conditions: 320 g/ha, foliage application after 14-day growth, evaluated three weeks after application
Outline: as §1

blackgrass [22] = experiment: Test Example 4: herbicidal effect by soil treatment (Table 19, symbol J); assay type: in vivo, blackgrass (Alopecurus myosuroides); conditions: amount of applied herbicide 320 g/ha
Outline: as §2

barnyard grass [23] = experiment: Test Example 4: herbicidal effect by soil treatment (Table 19, symbol H); assay type: in vivo, barnyard grass (Echinochloa crus-galli); conditions: amount of applied herbicide 320 g/ha
Outline: as §2

## Cc1nn(C)c(=O)c(-c2c(-c3ccc(Cl)cc3)sc3c(F)cccc23)c1O [4-040]
Persian speedwell [1]
  herbicidal effect on R: persian speedwell (evaluation grade 0-5): 5 (Herbicidal rate of 90% or more (almost completely withered))
Velvetleaf [2]
  Herbicidal effect by soil treatment, M: velvetleaf: 0 (Herbicidal rate of 5% or less (almost no effect))
windgrass
  Herbicidal effect by soil treatment, L: windgrass: 0 (Herbicidal rate of 5% or less (almost no effect))
Southern crabgrass [3]
  Herbicidal effect by soil treatment, F: southern crabgrass: 0 (Herbicidal rate of 5% or less (almost no effect))
Lambsquarters [4]
  Herbicidal effect by soil treatment, O: lambsquarters: 3 (Herbicidal rate of 40% or more and less than 70%)
Barnyard grass [5]
  herbicidal effect on barnyard grass (H): 5 (Herbicidal rate of 90% or more (almost completely withered))
Blackgrass [6]
  herbicidal effect on J: blackgrass (evaluation grade 0-5): 3 (Herbicidal rate of 40% or more and less than 70%)
Redroot pigweed [7]
  Herbicidal effect by soil treatment, N: redroot pigweed: 3 (Herbicidal rate of 40% or more and less than 70%)
Barnyard grass [8]
  herbicidal effect on H: barnyard grass (evaluation grade 0-5): 3 (Herbicidal rate of 40% or more and less than 70%)
Chinese sprangletop
  herbicidal effect on Chinese sprangletop (D): 4 (Herbicidal rate of 70% or more and less than 90%)
Chickweed [9]
  Herbicidal effect by soil treatment, P: chickweed: 1 (Herbicidal rate of 5% or more and less than 20%)
Wild oat [10]
  herbicidal effect on I: wild oat (evaluation grade 0-5): 0 (Herbicidal rate of 5% or less (almost no effect))
Velvetleaf [11]
  herbicidal effect on M: velvetleaf (evaluation grade 0-5): 4 (Herbicidal rate of 70% or more and less than 90%)
Green foxtail [12]
  herbicidal effect on G: green foxtail (evaluation grade 0-5): 4 (Herbicidal rate of 70% or more and less than 90%)
Rice flat sedge
  herbicidal effect on rice flat sedge (E): 5 (Herbicidal rate of 90% or more (almost completely withered))
Southern crabgrass [13]
  herbicidal effect on F: southern crabgrass (evaluation grade 0-5): 0 (Herbicidal rate of 5% or less (almost no effect))
Persian speedwell [14]
  Herbicidal effect by soil treatment, R: persian speedwell: 4 (Herbicidal rate of 70% or more and less than 90%)
Lambsquarters [15]
  herbicidal effect on O: lambsquarters (evaluation grade 0-5): 3 (Herbicidal rate of 40% or more and less than 70%)
Wild oat [16]
  Herbicidal effect by soil treatment, I: wild oat: 0 (Herbicidal rate of 5% or less (almost no effect))
Italian ryegrass [17]
  herbicidal effect on K: Italian ryegrass (evaluation grade 0-5): 4 (Herbicidal rate of 70% or more and less than 90%)
Redroot pigweed [18]
  herbicidal effect on N: redroot pigweed (evaluation grade 0-5): 5 (Herbicidal rate of 90% or more (almost completely withered))
Italian ryegrass [19]
  Herbicidal effect by soil treatment, K: Italian ryegrass: 2 (Herbicidal rate of 20% or more and less than 40%)
Green foxtail [20]
  Herbicidal effect by soil treatment, G: green foxtail: 0 (Herbicidal rate of 5% or less (almost no effect))
Chickweed [21]
  herbicidal effect on P: chickweed (evaluation grade 0-5): 5 (Herbicidal rate of 90% or more (almost completely withered))
Blackgrass [22]
  Herbicidal effect by soil treatment, J: blackgrass: 0 (Herbicidal rate of 5% or less (almost no effect))
Barnyard grass [23]
  Herbicidal effect by soil treatment, H: barnyard grass: 0 (Herbicidal rate of 5% or less (almost no effect))

## Cc1nn(C)c(=O)c(-c2c(-c3ccc(F)cc3)sc3c(Cl)cccc23)c1O [4-015]
Persian speedwell [1]
  herbicidal effect on R: persian speedwell (evaluation grade 0-5): 4 (Herbicidal rate of 70% or more and less than 90%)
Velvetleaf [2]
  Herbicidal effect by soil treatment, M: velvetleaf: 0 (Herbicidal rate of 5% or less (almost no effect))
windgrass
  Herbicidal effect by soil treatment, L: windgrass: 0 (Herbicidal rate of 5% or less (almost no effect))
Southern crabgrass [3]
  Herbicidal effect by soil treatment, F: southern crabgrass: 0 (Herbicidal rate of 5% or less (almost no effect))
Lambsquarters [4]
  Herbicidal effect by soil treatment, O: lambsquarters: 3 (Herbicidal rate of 40% or more and less than 70%)
Barnyard grass [5]
  herbicidal effect on barnyard grass (H): 3 (Herbicidal rate of 40% or more and less than 70%)
Blackgrass [6]
  herbicidal effect on J: blackgrass (evaluation grade 0-5): 0 (Herbicidal rate of 5% or less (almost no effect))
Redroot pigweed [7]
  Herbicidal effect by soil treatment, N: redroot pigweed: 2 (Herbicidal rate of 20% or more and less than 40%)
Barnyard grass [8]
  herbicidal effect on H: barnyard grass (evaluation grade 0-5): 0 (Herbicidal rate of 5% or less (almost no effect))
Chinese sprangletop
  herbicidal effect on Chinese sprangletop (D): 3 (Herbicidal rate of 40% or more and less than 70%)
Chickweed [9]
  Herbicidal effect by soil treatment, P: chickweed: 0 (Herbicidal rate of 5% or less (almost no effect))
Wild oat [10]
  herbicidal effect on I: wild oat (evaluation grade 0-5): 0 (Herbicidal rate of 5% or less (almost no effect))
Velvetleaf [11]
  herbicidal effect on M: velvetleaf (evaluation grade 0-5): 1 (Herbicidal rate of 5% or more and less than 20%)
Green foxtail [12]
  herbicidal effect on G: green foxtail (evaluation grade 0-5): 0 (Herbicidal rate of 5% or less (almost no effect))
Rice flat sedge
  herbicidal effect on rice flat sedge (E): 5 (Herbicidal rate of 90% or more (almost completely withered))
Southern crabgrass [13]
  herbicidal effect on F: southern crabgrass (evaluation grade 0-5): 0 (Herbicidal rate of 5% or less (almost no effect))
Persian speedwell [14]
  Herbicidal effect by soil treatment, R: persian speedwell: 0 (Herbicidal rate of 5% or less (almost no effect))
Lambsquarters [15]
  herbicidal effect on O: lambsquarters (evaluation grade 0-5): 1 (Herbicidal rate of 5% or more and less than 20%)
Wild oat [16]
  Herbicidal effect by soil treatment, I: wild oat: 0 (Herbicidal rate of 5% or less (almost no effect))
Italian ryegrass [17]
  herbicidal effect on K: Italian ryegrass (evaluation grade 0-5): 0 (Herbicidal rate of 5% or less (almost no effect))
Redroot pigweed [18]
  herbicidal effect on N: redroot pigweed (evaluation grade 0-5): 1 (Herbicidal rate of 5% or more and less than 20%)
Italian ryegrass [19]
  Herbicidal effect by soil treatment, K: Italian ryegrass: 0 (Herbicidal rate of 5% or less (almost no effect))
Green foxtail [20]
  Herbicidal effect by soil treatment, G: green foxtail: 0 (Herbicidal rate of 5% or less (almost no effect))
Chickweed [21]
  herbicidal effect on P: chickweed (evaluation grade 0-5): 5 (Herbicidal rate of 90% or more (almost completely withered))
Blackgrass [22]
  Herbicidal effect by soil treatment, J: blackgrass: 0 (Herbicidal rate of 5% or less (almost no effect))
Barnyard grass [23]
  Herbicidal effect by soil treatment, H: barnyard grass: 0 (Herbicidal rate of 5% or less (almost no effect))
